In one assay the target is T1, MMP-2 (Homo sapiens, UniProt P08253).
T1 construct: purchased R & D systems; host or cells: CHO cells
T1 sequence (P08253 110-660): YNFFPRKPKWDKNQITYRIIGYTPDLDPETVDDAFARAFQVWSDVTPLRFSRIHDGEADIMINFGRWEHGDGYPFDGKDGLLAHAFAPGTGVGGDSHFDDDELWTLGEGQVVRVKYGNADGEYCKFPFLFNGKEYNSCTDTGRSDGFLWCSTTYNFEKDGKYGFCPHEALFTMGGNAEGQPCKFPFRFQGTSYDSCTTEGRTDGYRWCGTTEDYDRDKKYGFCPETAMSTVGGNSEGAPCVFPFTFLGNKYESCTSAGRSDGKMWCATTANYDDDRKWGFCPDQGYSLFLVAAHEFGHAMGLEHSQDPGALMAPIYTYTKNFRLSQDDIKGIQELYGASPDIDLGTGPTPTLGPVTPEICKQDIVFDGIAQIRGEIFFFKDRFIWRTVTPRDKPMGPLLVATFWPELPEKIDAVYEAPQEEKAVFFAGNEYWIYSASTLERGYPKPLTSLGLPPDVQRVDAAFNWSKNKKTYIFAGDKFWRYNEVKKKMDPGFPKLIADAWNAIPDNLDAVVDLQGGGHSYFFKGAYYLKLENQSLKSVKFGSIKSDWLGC
Nature of the assay: MMP-2 OmniMMP peptide assay. Particulars: OmniMMP substrate peptide. The assay is classed as biochemical. The protocol:
Compounds 5 and 7 were synthesized as previously reported. Full-length human proMMP-9 was produced by recombinant expression in Sf9 insect cells and purified by gelatin-Sepharose chromatography as previously described. Stable full-length proMMP-9 monomers and trimers were separated by glycerol gradient ultracentrifugation as previously described. ProMMP-9 mixture and the separated monomers and trimers were activated by incubation with the catalytic domain of MMP-3 (cat. No. 444217, Merck Millipore, Darmstadt, Germany) as previously described. Activation of proMMP-9 was confirmed by a band shift of ±10 kDa, corresponding to the removal of the auto-inhibitory propeptide domain and by detection of gelatinolytic activity with a previously described gelatin degradation assay. […] ADAM17/TACE (Sf 21 (baculovirus)-derived, R & D systems, Minneapolis, MO, USA) was diluted and evaluated in 25 mM Tris, 2.5 μM ZnCl2, 0.005% Brij-35, pH 9.0. All stocks of the compounds were evaluated for the presence of endotoxin using the EndoZyme II assay (Hyglos bioMérieux, Bernried am Starnberger See, Germany). […]
To determine the inhibition of gelatinolytic activity, we used a previously optimized gelatin degradation assay. […] Proteolytic activity was determined by linear regression of the fluorescence curve and the percentage inhibition was calculated through comparison with the positive control (no inhibitors). […]

The target in assay [1] is T2, human neutrophil-derived MMP-9 monomers (Homo sapiens, UniProt P14780).
T2 construct: purchased Sigma-Aldrich 444,231; host or cells: human neutrophils (natural protein)
Nature of the assay: Gelatin degradation assay, neutrophil-derived MMP-9 monomers. Format: biochemical. Particulars: MMP-9 isolated from human neutrophils, mono. On the procedure: Compounds 5 and 7 were synthesized as previously reported. Full-length human proMMP-9 was produced by recombinant expression in Sf9 insect cells and purified by gelatin-Sepharose chromatography as previously described. Stable full-length proMMP-9 monomers and trimers were separated by glycerol gradient ultracentrifugation as previously described. ProMMP-9 mixture and the separated monomers and trimers were activated by incubation with the catalytic domain of MMP-3 (cat. No. 444217, Merck Millipore, Darmstadt, Germany) as previously described. Activation of proMMP-9 was confirmed by a band shift of ±10 kDa, corresponding to the removal of the auto-inhibitory propeptide domain and by detection of gelatinolytic activity with a previously described gelatin degradation assay. MMP-9 monomers and trimers purified from human neutrophils were purchased (Cat. No. 444,231 and 444232, Sigma-Aldrich, St. Louis, MO, USA). Examples of sample purities and activations can be found in Supplementary Figure S1. Recombinant human proMMP-2 (CHO cell-derived), proMMP-3 (NS0 cell-derived), proMMP-7 (NS0 cell-derived) and proMMP-8 (NS0 cell-derived) were purchased from R & D systems (Minneapolis, MN, USA), dissolved in assay buffer (150 mM NaCl, 5 mM CaCl2, 0.01% Tween-20, 50 mM Tris, pH 7.4) to a concentration of 100 µg/mL and activated by incubation with 1 mM p-aminophenylmercuric acetate for, respectively, 1h, 6h, 2h and 1h. Activation of MMPs was confirmed by a band shift of approximately 10 kDa, corresponding to the removal of the propeptide domain. MMP-14/MT1-MMP (NS0 cell-derived) was also purchased from R & D systems (Minneapolis, MN, USA) and activated by incubation with recombinant human furin (cat. No. 1503-SE-010, R & D systems, Minneapolis, MO, USA) in activation buffer (50 mM Tris, 1 mM CaCl2, 0.5% Brij-35, pH 9) for 1.5 h and activity was tested in assay buffer (50 mM Tris, 3 mM CaCl2, 1 µM ZnCl2, pH 8.5). Active human neutrophil elastase (NE) was purchased from Abcam (Cambridge, UK) and for activity assays of NE the assay buffer was replaced by 200 mM Tris, pH 8.8. ADAM17/TACE (Sf 21 (baculovirus)-derived, R & D systems, Minneapolis, MO, USA) was diluted and evaluated in 25 mM Tris, 2.5 μM ZnCl2, 0.005% Brij-35, pH 9.0. All stocks of the compounds were evaluated for the presence of endotoxin using the EndoZyme II assay (Hyglos bioMérieux, Bernried am Starnberger See, Germany). Endotoxin levels in all concentrated stocks (2.5 mg/mL) were below the accepted limit of 0.5 EU/mL.
To determine the inhibition of gelatinolytic activity, we used a previously optimized gelatin degradation assay. Activated MMP-9, activated MMP-2, neutrophil elastase or supernatants of stimulated neutrophils, were incubated with different concentrations of inhibitors and incubated for 30 min at 37 °C. Next, dye-quenched gelatin (DQ™-gelatin, Invitrogen, Carlsbad, CA, USA) was added at a final concentration of 2.5 µg/mL and the increase in fluorescence over time was measured with the CLARIOstar microplate reader (BMG Labtech, Ortenberg, Germany). For other MMPs, the OmniMMP substrate peptide (Mca-PLGL-Dpa-AR-NH2, cat. no. BML-P126-0001, Enzo Life Sciences, Farmingdale, NY, USA) was used at a final concentration of 2.5 µg/mL. For ADAM17 the fluorogenic peptide Mca-PLAQAV-Dpa-RSSSR-NH2 (ES003, R & D systems, Minneapolis, MO, USA) and for neutrophil elastase the fluorogenic substrate MeOSuc-AAPV-AMC (cat. no. 324740, Merck Millipore, Darmstadt, Germany) were used. Proteolytic activity was determined by linear regression of the fluorescence curve and the percentage inhibition was calculated through comparison with the positive control (no inhibitors). When testing supernatants from human neutrophils, the assay was performed in the presence of 20 µM neutrophil elastase inhibitor (Elastase Inhibitor IV, Calbiochem, Darmstadt, Germany).

Experimental findings from publication PMC7408547, “Bivalent Inhibitor with Selectivity for Trimeric MMP-9 Amplifies Neutrophil Chemotaxis and Enables Functional Studies on MMP-9 Proteoforms” (Cells, 2020) are described below.

As a reminder, the IC50 is the midpoint of a concentration-inhibition curve. A low value points to inhibition by little substance. The term IC25 denotes the point of the concentration-response curve where the effect stands at 25%. One may read the IC75 as the concentration needed for an effect of 75%.

Molecules are shown by their SMILES. Values joined by “and” are separate entries in the source; they are usually repeats but may differ in a detail not shown here. Identical values can stand only once.

T2 sequence (P14780 107-707 limits assumed): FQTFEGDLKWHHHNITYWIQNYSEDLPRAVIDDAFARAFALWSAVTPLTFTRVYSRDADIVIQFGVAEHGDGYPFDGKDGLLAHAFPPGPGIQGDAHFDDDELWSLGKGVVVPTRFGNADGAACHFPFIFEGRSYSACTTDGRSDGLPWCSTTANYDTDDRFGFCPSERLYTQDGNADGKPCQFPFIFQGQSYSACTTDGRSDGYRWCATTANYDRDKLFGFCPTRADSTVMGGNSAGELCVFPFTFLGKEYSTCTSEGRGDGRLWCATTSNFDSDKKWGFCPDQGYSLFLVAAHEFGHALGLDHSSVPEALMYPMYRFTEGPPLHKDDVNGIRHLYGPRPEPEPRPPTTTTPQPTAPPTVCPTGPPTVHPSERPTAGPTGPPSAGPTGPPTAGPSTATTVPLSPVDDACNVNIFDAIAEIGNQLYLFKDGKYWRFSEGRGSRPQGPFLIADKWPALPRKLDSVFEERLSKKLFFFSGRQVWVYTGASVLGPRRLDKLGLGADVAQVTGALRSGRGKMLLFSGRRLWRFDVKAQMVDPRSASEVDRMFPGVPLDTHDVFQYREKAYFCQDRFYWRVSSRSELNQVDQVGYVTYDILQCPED

On to `CC(C)[C@H](C(=O)O)N(CCNC(=O)c1ccccc1)S(=O)(=O)c1ccc(-c2ccccc2)cc1` [Compound 5], for which it took 1030 nM to reach half-maximal inhibition against MMP-2 (IC50). In assay [1], this molecule had a 25% effect concentration (IC25) of 300 nM, an IC50 of 1150 nM and an IC75 of 4431 nM.
For the molecule `CC(C)[C@H](C(=O)O)N(CCNC(=O)c1cccc(C(=O)NCCN([C@@H](C(=O)O)C(C)C)S(=O)(=O)c2ccc(-c3ccccc3)cc2)c1)S(=O)(=O)c1ccc(-c2ccccc2)cc1` [Compound 7], the IC50 on MMP-2 was ~5 nM and 5 nM. Moreover, in assay [1], the IC25 is recorded as 10 nM, inhibition was half-maximal at 43 nM (IC50) and the IC75 stood at 181 nM.
